The values that follow come from ChEMBL document CHEMBL4152280, “Binding mechanism investigations guiding the synthesis of novel condensed 1,4-dihydropyridine derivatives with L-/T-type calcium channel blocking activity” (Eur J Med Chem, 2018).

Data set [1] deals with Cav1.2 (voltage-dependent L-type calcium channel subunit alpha-1C) (Rattus norvegicus, UniProt P22002). As to the kind of experiment: Inhibition of rat Cav1.2 at 10 uM at -90 mV holding potential by patch clamp electrophysiology assay relative to control. A general note: The patch-clamp technique gives a direct electrical read-out from membranes.
Cav1.2 (voltage-dependent L-type calcium channel subunit alpha-1C), sequence (P22002 whole entry): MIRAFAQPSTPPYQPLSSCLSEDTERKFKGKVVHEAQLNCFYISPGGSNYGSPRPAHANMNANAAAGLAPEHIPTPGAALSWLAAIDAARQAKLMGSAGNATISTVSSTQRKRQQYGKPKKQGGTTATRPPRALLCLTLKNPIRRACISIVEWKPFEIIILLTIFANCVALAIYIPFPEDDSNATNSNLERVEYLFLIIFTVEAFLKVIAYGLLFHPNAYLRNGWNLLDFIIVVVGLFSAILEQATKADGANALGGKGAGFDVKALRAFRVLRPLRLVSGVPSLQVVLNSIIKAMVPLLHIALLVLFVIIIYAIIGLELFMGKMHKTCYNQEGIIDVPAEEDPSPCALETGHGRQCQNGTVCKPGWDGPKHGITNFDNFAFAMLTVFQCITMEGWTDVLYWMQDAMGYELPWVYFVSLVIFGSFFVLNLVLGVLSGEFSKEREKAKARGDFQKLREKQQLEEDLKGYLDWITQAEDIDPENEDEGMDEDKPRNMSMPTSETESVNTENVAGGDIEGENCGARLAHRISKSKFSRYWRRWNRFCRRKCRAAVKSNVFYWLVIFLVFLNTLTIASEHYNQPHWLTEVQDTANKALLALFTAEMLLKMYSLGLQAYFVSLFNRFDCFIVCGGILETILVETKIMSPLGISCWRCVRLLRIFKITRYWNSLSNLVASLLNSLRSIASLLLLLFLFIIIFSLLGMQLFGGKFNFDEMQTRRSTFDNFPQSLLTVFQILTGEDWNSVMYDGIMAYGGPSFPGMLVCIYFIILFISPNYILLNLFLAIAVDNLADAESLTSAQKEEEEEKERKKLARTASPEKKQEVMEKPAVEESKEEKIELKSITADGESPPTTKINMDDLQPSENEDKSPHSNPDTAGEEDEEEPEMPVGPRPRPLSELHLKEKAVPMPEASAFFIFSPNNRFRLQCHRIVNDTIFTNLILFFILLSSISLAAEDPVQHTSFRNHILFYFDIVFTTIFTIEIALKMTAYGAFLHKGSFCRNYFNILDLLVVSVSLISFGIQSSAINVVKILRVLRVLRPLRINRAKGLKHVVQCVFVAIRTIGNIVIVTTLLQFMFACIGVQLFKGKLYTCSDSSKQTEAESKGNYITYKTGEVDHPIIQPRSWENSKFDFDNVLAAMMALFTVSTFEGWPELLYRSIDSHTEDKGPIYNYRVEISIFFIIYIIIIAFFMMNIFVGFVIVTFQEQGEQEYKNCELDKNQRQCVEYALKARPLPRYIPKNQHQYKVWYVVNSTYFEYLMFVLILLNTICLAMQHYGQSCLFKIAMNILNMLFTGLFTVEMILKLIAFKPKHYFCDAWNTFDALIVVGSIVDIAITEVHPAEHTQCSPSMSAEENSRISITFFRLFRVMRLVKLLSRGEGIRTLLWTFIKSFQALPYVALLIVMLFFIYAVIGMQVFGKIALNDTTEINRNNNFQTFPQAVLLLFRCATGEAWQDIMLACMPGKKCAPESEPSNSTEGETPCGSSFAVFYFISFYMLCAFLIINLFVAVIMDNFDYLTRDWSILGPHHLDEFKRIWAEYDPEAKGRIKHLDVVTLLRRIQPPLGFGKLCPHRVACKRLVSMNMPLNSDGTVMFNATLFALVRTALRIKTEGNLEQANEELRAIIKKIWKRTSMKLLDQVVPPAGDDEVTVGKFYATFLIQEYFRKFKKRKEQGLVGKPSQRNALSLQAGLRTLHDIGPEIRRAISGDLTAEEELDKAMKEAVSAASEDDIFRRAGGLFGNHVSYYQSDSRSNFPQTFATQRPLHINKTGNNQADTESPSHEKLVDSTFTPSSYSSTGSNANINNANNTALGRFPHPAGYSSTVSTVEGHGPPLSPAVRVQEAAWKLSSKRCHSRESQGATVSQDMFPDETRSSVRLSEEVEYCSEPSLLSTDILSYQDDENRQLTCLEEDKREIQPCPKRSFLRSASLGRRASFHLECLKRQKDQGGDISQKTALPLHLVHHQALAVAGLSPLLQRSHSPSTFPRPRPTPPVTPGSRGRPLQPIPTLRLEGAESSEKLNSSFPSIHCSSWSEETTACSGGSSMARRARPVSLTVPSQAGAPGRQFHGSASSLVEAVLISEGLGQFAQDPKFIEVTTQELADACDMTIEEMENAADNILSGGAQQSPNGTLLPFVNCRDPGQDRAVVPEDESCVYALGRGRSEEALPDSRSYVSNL
Data set [2] deals with Voltage-dependent T-type calcium channel subunit alpha-1H (Homo sapiens) (UniProt O95180). As to the kind of experiment: Inhibition of human Cav3.2 at 10 uM at -110 mV holding potential by patch clamp electrophysiology assay.
Voltage-dependent T-type calcium channel subunit alpha-1H (Homo sapiens), sequence (O95180 whole entry): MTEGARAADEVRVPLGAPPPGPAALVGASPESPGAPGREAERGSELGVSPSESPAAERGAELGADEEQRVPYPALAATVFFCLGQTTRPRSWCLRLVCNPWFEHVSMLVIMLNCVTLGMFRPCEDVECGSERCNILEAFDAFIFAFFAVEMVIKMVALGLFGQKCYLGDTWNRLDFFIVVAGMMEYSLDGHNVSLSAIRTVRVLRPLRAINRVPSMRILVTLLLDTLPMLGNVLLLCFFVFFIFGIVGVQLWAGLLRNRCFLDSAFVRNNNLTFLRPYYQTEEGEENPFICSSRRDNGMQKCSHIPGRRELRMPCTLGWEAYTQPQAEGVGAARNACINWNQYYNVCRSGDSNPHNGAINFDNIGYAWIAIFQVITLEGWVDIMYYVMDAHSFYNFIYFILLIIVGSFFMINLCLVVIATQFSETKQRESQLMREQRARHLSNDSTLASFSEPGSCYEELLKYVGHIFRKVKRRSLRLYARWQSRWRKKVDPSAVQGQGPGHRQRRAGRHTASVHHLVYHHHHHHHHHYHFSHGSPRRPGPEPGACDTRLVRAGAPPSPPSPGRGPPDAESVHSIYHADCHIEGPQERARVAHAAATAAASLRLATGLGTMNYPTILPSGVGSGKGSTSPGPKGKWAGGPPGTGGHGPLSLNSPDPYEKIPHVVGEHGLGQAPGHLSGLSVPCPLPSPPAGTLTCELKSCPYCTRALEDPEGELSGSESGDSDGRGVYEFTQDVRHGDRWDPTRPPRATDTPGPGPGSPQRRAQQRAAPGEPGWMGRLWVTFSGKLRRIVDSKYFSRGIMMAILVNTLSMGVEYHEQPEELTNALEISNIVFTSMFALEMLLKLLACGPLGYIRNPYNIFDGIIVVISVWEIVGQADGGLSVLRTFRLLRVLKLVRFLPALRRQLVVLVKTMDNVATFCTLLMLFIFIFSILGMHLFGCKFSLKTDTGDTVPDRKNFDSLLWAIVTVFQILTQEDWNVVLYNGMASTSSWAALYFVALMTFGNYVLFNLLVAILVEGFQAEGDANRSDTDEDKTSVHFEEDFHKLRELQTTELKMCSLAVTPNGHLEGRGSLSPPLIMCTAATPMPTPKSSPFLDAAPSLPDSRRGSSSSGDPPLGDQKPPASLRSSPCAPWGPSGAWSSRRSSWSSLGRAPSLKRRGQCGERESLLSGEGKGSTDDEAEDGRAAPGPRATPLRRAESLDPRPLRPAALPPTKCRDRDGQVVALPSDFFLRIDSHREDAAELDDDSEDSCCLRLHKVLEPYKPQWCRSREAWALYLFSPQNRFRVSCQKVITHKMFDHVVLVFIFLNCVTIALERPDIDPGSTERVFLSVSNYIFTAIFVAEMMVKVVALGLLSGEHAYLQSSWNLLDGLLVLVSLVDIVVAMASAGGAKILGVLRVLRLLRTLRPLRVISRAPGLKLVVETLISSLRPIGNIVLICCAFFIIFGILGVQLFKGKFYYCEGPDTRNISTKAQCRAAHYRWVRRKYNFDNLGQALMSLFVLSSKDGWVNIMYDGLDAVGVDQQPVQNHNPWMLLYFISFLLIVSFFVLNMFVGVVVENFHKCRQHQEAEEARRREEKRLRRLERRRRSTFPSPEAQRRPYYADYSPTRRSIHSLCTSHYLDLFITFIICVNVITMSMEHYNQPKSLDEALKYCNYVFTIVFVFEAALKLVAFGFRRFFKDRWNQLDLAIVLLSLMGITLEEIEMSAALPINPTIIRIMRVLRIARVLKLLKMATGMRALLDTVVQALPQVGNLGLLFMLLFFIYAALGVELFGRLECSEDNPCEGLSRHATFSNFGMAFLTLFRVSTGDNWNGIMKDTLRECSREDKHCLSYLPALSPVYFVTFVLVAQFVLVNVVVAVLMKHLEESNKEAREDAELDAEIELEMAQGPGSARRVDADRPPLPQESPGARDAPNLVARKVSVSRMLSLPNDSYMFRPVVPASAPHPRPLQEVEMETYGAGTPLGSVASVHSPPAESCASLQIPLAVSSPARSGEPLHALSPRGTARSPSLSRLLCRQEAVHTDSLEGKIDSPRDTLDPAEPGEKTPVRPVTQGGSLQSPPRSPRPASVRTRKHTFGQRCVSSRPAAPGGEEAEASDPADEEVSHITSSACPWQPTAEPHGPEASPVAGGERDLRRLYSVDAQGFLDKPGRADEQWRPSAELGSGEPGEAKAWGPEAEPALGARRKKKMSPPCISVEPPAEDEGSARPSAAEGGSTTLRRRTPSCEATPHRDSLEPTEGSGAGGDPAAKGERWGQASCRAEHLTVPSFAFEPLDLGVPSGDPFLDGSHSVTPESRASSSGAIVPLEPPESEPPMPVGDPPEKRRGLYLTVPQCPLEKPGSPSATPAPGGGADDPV

The structures appear in SMILES notation. Active and inactive are the calls of the source. No cut-off for these calls is given here.

Turning to `CC1=C(C(=O)OC(C)(C)C)C(c2cc([N+](=O)[O-])ccc2O)C2=C(CCC(C)(C)C2=O)N1` (centres undefined), in data set [1], the inhibition (commonly how much of the control response was suppressed) at 10 µM was below 30%.
In the case of `COC(=O)C1=C(C)NC2=C(C(=O)C(C)(C)CC2)C1c1cc([N+](=O)[O-])ccc1O` (centres undefined), the inhibition at 10 µM in data set [1] is below 30%.
For the compound `CCOC(=O)C1=C(C)NC2=C(C(=O)C(C)(C)CC2)C1c1cc([N+](=O)[O-])ccc1O` (centres undefined), the inhibition at 10 µM in data set [1] came out at 70%.
For `CC1=C(C(=O)OCC(C)C)C(c2cc([N+](=O)[O-])ccc2O)C2=C(CC(C)(C)CC2=O)N1` (centres undefined), the inhibition at 10 µM in data set [1] was determined as 30%.
In the case of `CC1=C(C(=O)OCC(C)C)C(c2cc(Br)cc([N+](=O)[O-])c2O)C2=C(CCC(C)(C)C2=O)N1` (centres undefined), the inhibition at 10 µM in data set [1] was determined as 10%.
For `CCOC(=O)C1=C(C)NC2=C(C(=O)C(C)(C)CC2)C1c1ccc(O)c(C(F)(F)F)c1` (centres undefined), the inhibition result in data set [2] is “Active”.
In the case of `CCOC(=O)C1=C(C)NC2=C(C(=O)C(C)(C)CC2)C1c1cc(Br)cc([N+](=O)[O-])c1O` (centres undefined), in data set [1], the inhibition at 10 µM was 50%. In addition, in data set [2], the inhibition entry was “Active”.
Regarding `CC1=C(C(=O)OCC(C)C)C(c2ccc(O)c(C(F)(F)F)c2)C2=C(CCC(C)(C)C2=O)N1` (centres undefined), the inhibition entry in data set [2] was “Active”.
Regarding `CC1=C(C(=O)OCC(C)C)C(c2cc([N+](=O)[O-])cc(Br)c2O)C2=C(CCC(C)(C)C2=O)N1` (centres undefined), in data set [1], the inhibition at 10 µM stood at 15%.
As to `CC1=C(C(=O)OCC(C)C)C(c2cc([N+](=O)[O-])cc(Br)c2O)C2=C(CC(C)(C)CC2=O)N1` (centres undefined), the inhibition at 10 µM in data set [1] is 70%.
`CC1=C(C(=O)OCC(C)C)C(c2cc([N+](=O)[O-])ccc2O)C2=C(CCC(C)(C)C2=O)N1` (centres undefined): the inhibition at 10 µM in data set [1] is 70%.
With `CC1=C(C(=O)OCC(C)C)C(c2cc([N+](=O)[O-])cc([N+](=O)[O-])c2O)C2=C(CCC(C)(C)C2=O)N1` (centres undefined), the inhibition entry in data set [2] is “Active”.
Turning to `CC1=C(C(=O)OCc2ccccc2)C(c2cc([N+](=O)[O-])ccc2O)C2=C(CCC(C)(C)C2=O)N1` (centres undefined), the inhibition at 10 µM in data set [1] worked out at 70%.
